Reference: ChEMBL document CHEMBL1150844, “Isolation and structures of hedaols A, B, and C, new bisnorditerpenes from a Japanese brown alga” (J Nat Prod, 2001)
Converted amounts (≈) assume the structure as drawn.

Test system: P388
Test: Cytotoxicity against mouse P388 cells after 4 days by MTT method
Format: functional, cell-based
Conditions: P388, 96 h

Row | Structure (SMILES) | IC50 [µg/mL]
1 | CC(C)=CC(=O)/C=C(/C)CCC/C(C)=C/CC[C@@H](C)O [HEDAOL A] | 5.1 (≈ 18.3 µM)
2 | CC(C)=CC(=O)/C=C(\C)CCC/C(C)=C/CC[C@@H](C)O [HEDAOL C] | 50 (≈ 180 µM)
3 | CC(C)=CC(=O)C/C(C)=C/CC/C(C)=C/CC[C@@H](C)O [HEDAOL B] | 2.2 (≈ 7.9 µM)
